Experimental data: patent publication US20170280720A1, “ARGININE […] INHIBITORS AND USES THEREOF” (EPIZYME, INC., priority 2014, published 2017)

target: T1, human PRMT1 (Homo sapiens, UniProt Q99873); assay: PRMT1 biochemical assay (3H-SAM Flashplate, peptide substrate); conditions: read-out: PRMT1_ IC50
T1 construct: GST-tagged PRMT1; made in house; host or cells: High Five insect cells (baculovirus, pFastBacI)
In short: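 FLAG-tagged full-length human PRMT1 (0.5 nM, GST-tagged, insect-cell expressed) preincubated 30 min at RT with compound, then biotinylated histone H4 36-50 peptide (20 nM) plus 200 nM 3H-SAM and 1.5 uM SAM in Bicine pH 7.6, 2% DMSO. 3H-methylated peptide captured on streptavidin Flashplate; IC50 from 3/4-parameter fit.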

T1 sequence (Q99873 with tags, fused parts or gaps): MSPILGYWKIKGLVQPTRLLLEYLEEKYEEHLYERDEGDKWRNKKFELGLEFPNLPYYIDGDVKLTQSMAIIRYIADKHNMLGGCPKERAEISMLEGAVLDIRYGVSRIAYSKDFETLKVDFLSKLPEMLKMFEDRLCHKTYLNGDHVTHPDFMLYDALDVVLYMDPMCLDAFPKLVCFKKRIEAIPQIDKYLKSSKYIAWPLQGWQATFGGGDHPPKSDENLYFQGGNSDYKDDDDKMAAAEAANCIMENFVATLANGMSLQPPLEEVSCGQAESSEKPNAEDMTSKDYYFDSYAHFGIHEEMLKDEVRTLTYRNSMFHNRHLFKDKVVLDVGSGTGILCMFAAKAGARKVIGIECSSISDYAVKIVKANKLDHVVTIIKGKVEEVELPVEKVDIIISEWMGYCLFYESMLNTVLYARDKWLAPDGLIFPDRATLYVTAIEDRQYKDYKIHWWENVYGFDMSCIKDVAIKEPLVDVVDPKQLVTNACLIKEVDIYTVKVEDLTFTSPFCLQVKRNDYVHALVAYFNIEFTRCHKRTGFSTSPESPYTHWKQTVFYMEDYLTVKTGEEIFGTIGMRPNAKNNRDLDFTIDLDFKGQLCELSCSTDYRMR

Compound	IC50
CNCCN(C)Cc1cccc(-c2nc(NCc3nccs3)c3cnn(C4CC4)c3n2)c1 [Compound 2]	0.0217 µM
Cc1cc(C)c(CNC(=O)c2cc(-c3ccc(CNCCN(C)C)cc3)nc3c2cnn3C(C)C)c(=O)[nH]1 [Compound 359]	4.66 µM
Cc1cc(C)c(CNC(=O)c2cc(-c3cccc(CN(C)CCN)c3)nc3c2cnn3C(C)C)c(=O)[nH]1 [Compound 360]	0.254 µM
Cc1cc(C)c(CNC(=O)c2cc(-c3cccc(CN(C)CCN(C)C)c3)nc3c2cnn3C(C)C)c(=O)[nH]1 [Compound 361]	4.27 µM
CNCCN(C)Cc1ccc(-c2cc(C(=O)NCc3c(C)cc(C)[nH]c3=O)c(C)c3n[nH]cc23)cc1 [Compound 362]	0.104 µM
Cc1cc(C)c(CNC(=O)c2cc(-c3cccc(CNCCN)c3)nc3c2cnn3C(C)C)c(=O)[nH]1 [Compound 365]	7.49 µM
Cc1cc(C)c(CNC(=O)c2cc(-c3cccc(CNCCN)c3)cc3[nH]ncc23)c(=O)[nH]1 [Compound 366]	2.4 µM
CNCCN(C)Cc1cccc(-c2cc(C(=O)NCc3c(C)cc(C)[nH]c3=O)c3cnn(C(C)C)c3c2)c1 [Compound 367]	0.183 µM
CNCCN(C)Cc1cccc(-c2cc(C(=O)NCc3c(C)cc(C)[nH]c3=O)c3cnn(C(C)C)c3n2)c1 [Compound 368]	0.0866 µM
CNCCN(C)Cc1ccc(-c2cc(C(=O)NCc3c(C)cc(C)[nH]c3=O)c(C)c3nn(C4CCCC4)cc23)cc1 [Compound 370]	0.418 µM
Cc1cc(C)c(CNC(=O)c2cc(CNCCN(C)C)cc3c2cnn3C2CCCC2)c(=O)[nH]1 [Compound 371]	11.8 µM
CNCCN(C)Cc1cccc(-c2cc(C(=O)NCc3c(C)cc(C)[nH]c3=O)c(C)c3[nH]ncc23)c1 [Compound 372]	0.0596 µM
CNCCN(C)Cc1ccc(-c2cncc(C(=O)NCc3c(C)cc(C)[nH]c3=O)c2)cc1 [Compound 373]	0.0647 µM
Cc1cc(C)c(CNC(=O)c2cncc(-c3ccc(CN(C)CCN)cc3)c2)c(=O)[nH]1 [Compound 374]	0.0731 µM
Cc1cc(C)c(CNC(=O)c2cncc(-c3ccc(CN(C)CCN(C)C)cc3)c2)c(=O)[nH]1 [Compound 378]	0.297 µM
Cc1cc(C)c(CNC(=O)c2cncc(-c3ccc(CNCCN)cc3)c2)c(=O)[nH]1 [Compound 379]	0.335 µM
CNCCN(C)Cc1cccc(-c2cc(C(=O)NCCCCCC(=O)NCc3c(C)cc(C)[nH]c3=O)c3cnn(C(C)C)c3n2)c1 [Compound 382]	0.177 µM
CNCCN(C)Cc1cccc(-c2cc(C(=O)NCCCC(=O)NCc3c(C)cc(C)[nH]c3=O)c3cnn(C(C)C)c3n2)c1 [Compound 383]	0.212 µM
CNCCN(C)Cc1cccc(-c2cc(C(=O)NCCC(=O)NCc3c(C)cc(C)[nH]c3=O)c3cnn(C(C)C)c3n2)c1 [Compound 384]	0.22 µM
CNCCN(C)Cc1cccc(-c2cc(C(=O)NCCCCC(=O)NCc3c(C)cc(C)[nH]c3=O)c3cnn(C(C)C)c3n2)c1 [Compound 385]	0.232 µM
COc1nc(C)cc(C)c1CNC(=O)c1cc(-c2cccc(CN(C)CCN(C)C)c2)nc2c1cnn2C(C)C [Compound 386]	1.61 µM
COc1nc(C)cc(C)c1CNC(=O)c1cc(-c2cccc(CNCCN)c2)nc2c1cnn2C(C)C [Compound 391]	1.22 µM
